Test results: publication PMC10804683, “Identification of the pyridoxal 5′‐phosphate allosteric site in human pyridox(am)ine 5′‐phosphate oxidase” (Protein Science : A Publication of the Protein Society, 2024)
Residue numbers refer to the chain shown, from its start. Values joined by “and” are separate entries in the source; they are usually repeats but may differ in a detail not shown here. Equal entries are not always repeated.

Assays:
[1] = biological target: T1, human PNPO F48A/E50L/R161C/R258L variant (Homo sapiens, UniProt Q9NVS9, E50L/F48A/R161C/R258L); test: PLP binding by DSF, F48A/E50L/R161C/R258L
T1 construct: a main form corresponding to the entire protein; made in house; host or cells: E. coli BL21(DE3)
T1 sequence (Q9NVS9 1-261 F48A/E50L/R161C/R258L): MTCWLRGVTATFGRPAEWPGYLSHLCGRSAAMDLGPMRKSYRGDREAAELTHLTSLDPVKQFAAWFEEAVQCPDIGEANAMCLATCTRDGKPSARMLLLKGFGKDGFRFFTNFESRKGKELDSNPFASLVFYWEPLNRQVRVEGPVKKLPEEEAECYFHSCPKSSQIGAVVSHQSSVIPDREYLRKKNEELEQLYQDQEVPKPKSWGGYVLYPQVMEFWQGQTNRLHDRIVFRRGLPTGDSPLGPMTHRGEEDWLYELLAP
Excerpt: (§1) PLP binding to PNPO can be detected and quantitatively measured using differential scanning fluorimetry (DSF) and also by measuring FMN fluorescence changes. We had previously attributed DSF changes to PLP binding at the active site, while FMN fluorescence changes were attributed to PLP binding at the allosteric site (Barile et al., [2019], [2020]). Previous experiments carried out with the PNPO R161C variant, affecting a residue that is essential for substrate binding and catalysis (and therefore also for PLP binding at the active site), confirms that DSF measurements only report PLP binding at the active site (Barile et al., [2021]; Table 1). The dissociation constant values obtained with DSF are almost the same for the three variants and doubled with respect to the wild type enzyme (Figure 2, Table 1). This behavior reflects the decrease of affinity of these variants for the substrates compared to the wild type PNPO. We expected to observe no FMN fluorescence changes upon titration of the variants with PLP. However, this was not the case, and the dissociation constant values obtained by observing the FMN fluorescence emission were only up to threefold larger in the variants with respect to wild type PNPO (Figure 3). […] To check the second possibility, we measured intrinsic fluorescence changes of wild type and variant apo‐forms (i.e., without FMN) upon PLP titration. […]

[2] = biological target: T2, human PNPO F48A/E50L/H248N/R258L variant (Homo sapiens, UniProt Q9NVS9, E50L/F48A/H248N/R258L); test: PLP binding by DSF, quadruple variant; conditions: 50 mM Na-HEPES pH 7.6, 2 μM enzyme
T2 construct: a main form corresponding to the entire protein; made in house; host or cells: E. coli BL21(DE3)
T2 sequence (Q9NVS9 1-261 F48A/E50L/H248N/R258L): T1 sequence (Q9NVS9 1-261 F48A/E50L/R161C/R258L) with C161R, H248N
Excerpt: as §1, with “The dissociation constant values obtained with DSF are almost the same for the three variants and doubled with respect to the wild type enzyme (Figure 2, Table 1). This behavior reflects the decrease of affinity of these variants for the substrates compared to the wild type PNPO.” left out
FIGURE 2 DSF measurements with F48A (a), F48A/E50L/R258L (b), F48A/E50L/H248N/R258L (c), and 1‐31del PNPO variants in the presence of different PLP concentrations. Upper panels: Fluorescence change is expressed as fractional variation as a function of temperature. […]

apo-PNPO wt = biological target: T3, apo-PNPO wt (Homo sapiens, UniProt Q9NVS9); test: PLP binding by intrinsic fluorescence, apo wild type; conditions: intrinsic fluorescence 335–345 nm, excitation 280 nm, 100 nM enzyme, read-out: Apo-enzyme PLP binding KD^FLUO
T3 construct: a main form corresponding to the entire protein; made in house; host or cells: E. coli BL21(DE3)
T3 sequence (Q9NVS9 1-261): T1 sequence (Q9NVS9 1-261 F48A/E50L/R161C/R258L) with A48F, L50E, C161R, L258R
Excerpt: as §1, with “The dissociation constant values obtained with DSF are almost the same for the three variants and doubled with respect to the wild type enzyme (Figure 2, Table 1). This behavior reflects the decrease of affinity of these variants for the substrates compared to the wild type PNPO.” left out
Analyses of PLP binding, based on FMN fluorescence increase observed upon binding of PLP to PNPO, were performed as described in Barile et al. ([2020]). […] Emission spectra were recorded from […], with excitation and emission slits set at 3 and 5 nm, respectively. […]

human PNPO wild type = biological target: T4, human PNPO wild type (Homo sapiens, UniProt Q9NVS9); design: a main form corresponding to the entire protein; made in house; host or cells: E. coli BL21(DE3); method as in Barile et al., [2020]; conditions: substrate-enzyme-PLP ternary complex, ref Barile et al., [2020]; cited from earlier work
T4 sequence (Q9NVS9 1-261): T1 sequence (Q9NVS9 1-261 F48A/E50L/R161C/R258L) with A48F, L50E, C161R, L258R

## Cc1ncc(COP(=O)(O)O)c(C=O)c1O [PLP, pyridoxal 5′‐phosphate]
[1]
  PLP binding KD^DSF: No binding
[2]
  Kd: 6.07 µM and 6.1 µM
apo-PNPO wt
  Kd: 0.6 ± 0.05 µM
Human PNPO wild type
  coefficient by which kCAT is reduced with PLP bound at the allosteric site: around 0.15
